Test results taken from US11439603B2, “Compositions for ameliorating, preventing or treating somnipathy including phloroglucinol as active ingredient and compositions for suppressing intolerance to or alleviating side effects of agonist at benzodiazepine binding site of GABA-A receptor including phloroglucinol as active ingredient” (KOREA FOOD RESEARCH INSTITUTE, priority 2017, dated 2022).

Key:
[1] = system: C57BL/6N mice; experiment: Sleep architecture analysis (EEG/EMG) after single administration; assay type: in vivo; conditions: for NREM sleep / REM sleep: EEG recorded for 2 h after oral administration
Method: C57BL/6N mice (28-30 g, 12-week old male) were received from Koatech Co. Ltd. (Pyeongtaek, Gyeonggi-do, Korea) and acclimated to the vivarium for a period of one week before testing was conducted. The animals were housed at a temperature of 23±1° C., a humidity of 55±5%, and a light intensity of 3000 Lux under a 12 h light-dark cycle (light on from 07:00 to 19:00). The animals had ad libitum access to food and water. All animals were maintained in accordance with the guidelines for the Institutional Animal Care and Use Committee of the Korea Food Research Institute (KFRI-IACUC).
C57BL/6N mice were acclimated for a period of one week and received electrode implantation for electroencephalogram (EEG) and electromyogram (EMG) recordings. Each mouse was anesthetized with pentobarbital (50 mg/kg, i.p.) and its head was fixed in a stereotaxic instrument. After the subcutaneous connective tissue of the head was incised, an EEG/EMG headmount (Pinnacle Technology Inc., Lawrence, Kans., USA) was implanted for EEG and EMG recordings, fixed with dental cement, and closed with sutures. The surgical site was sterilized and an antibiotic was administered for 3 days to prevent possible inflammation after surgery. The animal was allowed to recover for 7 days. For adaptation to the recording conditions, 0.5% CMC-saline solution used as a control was administered orally from 4 days before measurement. Thereafter, the recording instrument was connected to induce acclimation of the animal to this experimental procedure.
After oral administration of a sample, the animal was stabilized for 5 min. Then, EEG and EMG were recorded using PAL-8200 series (Pinnacle Technology Inc., Lawrence, Kans., USA) for 24 h from 17:00. The sampling rate for EEG and EMG recordings was set to 200 Hz (epoch time: 10 s). The filtering range was set to 0.1-25 Hz for EEG data recording and 10-100 Hz for EMG data recording.
Sleep architecture analysis was conducted according to the fast Fourier transform (FFT) algorithm using the SleepSign program (Ver. 3.0, Kissei Comtec Inc., Matsumoto, Nagono, Japan).
The results were divided into three stages: Wake, REMS (rapid eye movement sleep, theta band: 6-10 Hz) and NREMS (non-rapid eye movement sleep, delta band: 0.5-4 Hz). Sleep latency was defined as the time required for NREM sleep with 10 s epoch to occur consecutively at least 12 times (Blanco-Centurion et al., 2006). The values in the 0.5-4 Hz range were averaged and the delta power during NREM sleep was expressed in percent relative to the control.
All animal experimental data were expressed as mean±standard deviation.

[2] = system: GABAA-benzodiazepine receptor; experiment: Mechanism of action for sleep enhancement: flumazenil given 15 min before oral sample, EEG/EMG; assay type: in vivo, mice
Method: To investigate the mechanism of action for sleep enhancement, flumazenil, an antagonist of the GABAA-benzodiazepine receptor, was administered 15 min before oral administration of phloroglucinol and EEG and EMG were recorded by the same method as described in Experimental Example 1.
In this example, zolpidem was used as a positive control.

[3] = system: C57BL/6N mice; experiment: Sleep architecture (EEG) during long-term administration for 21 days and 2-day withdrawal; assay type: in vivo
Method: Experimental animals were prepared and their sleep architecture was analyzed in the same manner as in Experimental Example 1. As in the single administration in Experimental Example 1, the mice were allowed to recover for 7 days after surgery and acclimated for 4 days. Thereafter, baselines (BL) were measured on day 0 after acclimation and a sample was administered orally to each animal for 21 days. EEGs were recorded on days 1, 7, 14, and 21. EEGs were recorded and analyzed during the subsequent 2-day withdrawal. FIG. 8 is a flow diagram of an experiment for sleep architecture analysis during long-term administration.
EEGs were recorded for the mice on days 0, 1, 7, 14, and 21 during long-term administration of each sample for 3 weeks. The recorded EEGs were analyzed.

[4] = system: GABAA-benzodiazepine; conditions: compared with other phlorotannins and diazepams; cited from earlier work
[5] = administered alone at doses of 25 to 50 mg/kg; cited from earlier work
[6] = oral once daily for 3 weeks, phloroglucinol 100 mg/kg, zolpidem 5 mg/kg
[7] = oral once daily for 3 weeks, phloroglucinol 100 mg/kg, zolpidem 5 mg/kg, or both

Structure (SMILES): CN1C(=O)CN=C(c2ccccc2)c2cc(Cl)ccc21 [diazepam]
- delta activity in the range of 0.5-4 Hz ([1]; 5 mg/kg diazepam (data not shown)): significantly reduced

Structure (SMILES): Cc1ccc(-c2nc3ccc(C)cn3c2CC(=O)N(C)C)cc1 [zolpidem, N,N,6-trimethyl-2-p-tolylimidazo[1,2-a]pyridine-3-acetamide L-(+)-tartrate (2:1)]
- residual sedation ([1]; 5 mg/kg): slight residual sedation
- time after administration for which NREM sleep was significantly increased ([1]; 5 mg/kg): 3 h
- time after administration for which vigilance was significantly reduced ([1]; 5 mg/kg): up to 9 h
- NREM sleep at 14 h after administration (residual sedative effect) ([1]; 10 mg/kg alone): significantly increased
- time after administration for which the sleep-enhancing effect lasted ([1]; 10 mg/kg alone): 4 h
- increase of NREM sleep duration ([1]; 10 mg/kg, 2 h after oral administration, p<0.01): 74.6%
- NREM sleep [1]: increased NREM sleep in a concentration-dependent manner
- REM sleep [1]: without affecting REM sleep
- delta activity in the range of 0.5-4 Hz during NREM sleep ([1]; oral 5 mg/kg, p<0.01): significantly reduce
- delta activity in the range of 0.5-4 Hz during NREM sleep ([1]; oral 10 mg/kg, p<0.01): significantly reduce
- reduction of sleep latency ([1]; single administration of zolpidem 10 mg/kg): ~44 min
- sleep latency compared to negative control (vehicle) ([1]; single administration, 5 and 10 mg/kg): significantly reduced
- sleep-enhancing effect with flumazenil ([2]; flumazenil administered before sample, positive control): completely blocked
- time for which NREM sleep duration was significantly increased compared to baseline ([3]; day 1, zolpidem 5 mg/kg alone or with phloroglucinol 100 mg/kg): 3 h
- time for which NREM sleep duration was significantly increased compared to baseline ([3]; day 21, zolpidem 5 mg/kg alone): 1 h
- delta activity compared to baseline ([3]; days 1, 7, and 14 of long-term administration, zolpidem 5 mg/kg, p<0.01): significant reductions
- NREM sleep duration compared to baseline (BL) [3, 6]: significant increase
- intolerance on long-term administration [3, 6]: demonstrating intolerance
- sleep latency compared to baseline (BL) [3, 6]: significant reduction
- NREM sleep duration with increasing administration period (third week / day 21 versus first day) [3, 7]: significant difference
- sleep latency with increasing administration period (third week / days 7, 14, 21 versus first day) [3, 7]: significant difference

Structure (SMILES): Oc1cc(O)cc(O)c1 [phloroglucinol]
- NREM sleep [1]: increased NREM sleep in a concentration-dependent manner
- REM sleep [1]: without affecting REM sleep
- delta activity during NREM sleep ([1]; oral, up to 150 mg/kg alone): no significant change
- time after administration for which NREM sleep was significantly increased ([1]; single administration 150 mg/kg): 2 h
- sleep latency compared to negative control (vehicle) ([1]; single oral administration, all concentrations (50, 100 and 150 mg/kg)): significantly reduced
- amount of NREM sleep ([2]; treated with flumazenil 15 min before oral administration): level similar to that of a negative control
- NREM sleep ([2]; untreated with flumazenil): increased NREM sleep
- NREM sleep duration compared to baseline (BL) [3, 6]: increase
- intolerance on long-term administration [3, 6]: no intolerance
- sleep latency compared to baseline (BL) [3, 6]: significant reduction
- persistence of NREM sleep-enhancing effect from day 1 to day 21 ([3]; phloroglucinol 100 mg/kg alone or with zolpidem 5 mg/kg, once daily): lasted similarly from day 1 to day 21
- IC50 [4]: much lower
- binding affinity (Ki) [4]: much lower
- sleep duration [5]: increasing sleep duration
- sleep latency [5]: effective in reducing sleep latency
